The values that follow come from patent US9370515B2, “Mixed lineage kinase inhibitors and method of treatments” (CALIFIA BIO, INC., priority 2013, dated 2016).

SMILES strings stand for the structures.

By IC50 is commonly meant the midpoint of a concentration-inhibition curve. The low end stands for greater potency, the high end for weaker potency.

Sequence of MLK-3 (Q16584 whole entry): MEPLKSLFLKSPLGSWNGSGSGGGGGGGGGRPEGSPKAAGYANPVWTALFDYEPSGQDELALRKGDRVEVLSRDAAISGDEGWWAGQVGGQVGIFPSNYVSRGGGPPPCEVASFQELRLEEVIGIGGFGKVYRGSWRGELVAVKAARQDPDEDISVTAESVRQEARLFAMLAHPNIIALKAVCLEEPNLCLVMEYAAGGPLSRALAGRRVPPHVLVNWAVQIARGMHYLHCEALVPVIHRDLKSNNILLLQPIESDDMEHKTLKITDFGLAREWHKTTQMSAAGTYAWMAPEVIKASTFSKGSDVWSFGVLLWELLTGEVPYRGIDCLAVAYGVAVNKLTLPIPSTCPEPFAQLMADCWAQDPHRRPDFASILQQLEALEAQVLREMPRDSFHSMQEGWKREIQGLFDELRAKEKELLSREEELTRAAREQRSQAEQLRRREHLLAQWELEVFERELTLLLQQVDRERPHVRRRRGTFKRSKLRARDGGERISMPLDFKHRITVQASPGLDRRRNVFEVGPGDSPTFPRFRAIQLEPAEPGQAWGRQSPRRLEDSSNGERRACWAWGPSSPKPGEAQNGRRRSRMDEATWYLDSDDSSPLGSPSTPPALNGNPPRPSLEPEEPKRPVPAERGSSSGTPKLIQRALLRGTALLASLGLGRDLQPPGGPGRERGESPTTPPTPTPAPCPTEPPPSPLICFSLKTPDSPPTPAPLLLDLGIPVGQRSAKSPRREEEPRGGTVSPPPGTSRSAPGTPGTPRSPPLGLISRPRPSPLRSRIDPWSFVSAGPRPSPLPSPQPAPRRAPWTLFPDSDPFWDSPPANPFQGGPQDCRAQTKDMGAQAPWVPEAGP

The assay concerns the target MLK-3 (Homo sapiens, UniProt Q16584). As to the kind of experiment: Biochemical assay for the inhibition of kinase activity for MLK-3 (33P-ATP, HOTSPOT filter binding). The conditions noted are these: activated MLK-3 20 nM, ATP 50 μM, myelin basic protein 20 μM, 20 minutes room temperature. How it is done: Biochemical Assay for the Inhibition of Kinase Activity for MLK-3: Myelin basic protein (20 μM final concentration) is dissolved in 20 mM Hepes (pH 7.5) containing […], […], 0.02% Brij35, 0.02 mg/ml BSA, 0.1 μM Na3VO4, 2 mM DTT, and 1% DMSO. Activated MLK-3 is added and mixed (20 nM final concentration), and inhibitors are added in DMSO. ^33P-ATP (specific activity 500 μCi/μL) is delivered into the reaction mixture to initiate the reaction (ATP concentration is 50 μM) and the mixture is incubated at room temperature for 20 minutes. % Activity is determined using a proprietary HOTSPOT™ microfluidic filter binding technology. See, Expert Opin. Drug Discov. 2008 June; 3(6): 607-621.
As to `O[C@H]1CCC[C@@H](Nc2ccc3ncc(-c4cc5ccccc5s4)n3n2)C1` (relative stereo) [Compound 122, cis-3-(3-(benzo[b]thiophen-2-yl)imidazo[1,2-b]pyridazin-6-ylamino)cyclohexanol], the IC50 lay in the range of 100 to 500 nM.
In turn, `COc1cc2cc(-c3cnc4ccc(NC5CCC[C@H](O)C5)nn34)sc2cc1OC` (stereo in doubt) [Compound 174, 3-(3-(5,6-dimethoxybenzo[b]thiophen-2-yl)imidazo[1,2-b]pyridazin-6-ylamino)cyclohexanol] gave an IC50 below 100 nM.
`COc1ccc2[nH]c(-c3cnc4ccc(Nc5ccc(OC)c(OC)c5)nn34)cc2c1` [Compound 3, 3-(5-methoxy-1H-indol-2-yl)-N-(3,4-dimethoxyphenyl)imidazo[1,2-b]pyridazin-6-amine] showed an IC50 of 100 to 500 nM.
With `COc1ccc2cc(-c3cnc4ccc(Nc5ccc(OC)c(OC)c5)nn34)[nH]c2c1` [Compound 4, 3-(6-methoxy-1H-indol-2-yl)-N-(3,4-dimethoxyphenyl)imidazo[1,2-b]pyridazin-6-amine], the IC50 is 100 to 500 nM.
As for `COc1ccc(Nc2ccc3ncc(-c4cc5cccc(OC)c5[nH]4)n3n2)cc1OC` [Compound 5, 3-(7-methoxy-1H-indol-2-yl)-N-(3,4-dimethoxyphenyl)imidazo[1,2-b]pyridazin-6-amine], the figure is below 100 nM; as for `COc1ccc(Nc2ccc3ncc(-c4cccc(O)c4)n3n2)cc1OC` [Compound 9, 3-(6-(3,4-dimethoxyphenylamino)imidazo[1,2-b]pyridazin-3-yl)phenol], below 5000 nM; as for `COc1ccc(Nc2ccc3ncc(-c4cc(OC)c(OC)c(OC)c4)n3n2)cc1OC` [Compound 11, 3-(3,4,5-trimethoxyphenyl)-N-(3,4-dimethoxyphenyl)imidazo[1,2-b]pyridazin-6-amine], below 5000 nM.
Under `CN1CCN(c2cccc(Nc3ccc4ncc(-c5cc6ccccc6s5)n4n3)c2)CC1` [Compound 13, 3-(benzo[b]thiophen-2-yl)-N-(3-(4-methylpiperazin-1-yl)phenyl)imidazo[1,2-b]pyridazin-6-amine] stands below 5000 nM; under `COc1cc(Nc2ccc3ncc(-c4cc5ccccc5s4)n3n2)cc(OC)c1OC` [Compound 14, 3-(benzo[b]thiophen-2-yl)-N-(3,4,5-trimethoxyphenyl)imidazo[1,2-b]pyridazin-6-amine], 500 to 1000 nM; under `COc1cc(Nc2ccc3ncc(-c4cc5ccccc5s4)n3n2)ccc1O` [Compound 24, 4-(3-(benzo[b]thiophen-2-yl)imidazo[1,2-b]pyridazin-6-ylamino)-2-methoxyphenol], 100 to 500 nM.
Compound `O=C(O)c1ccc(Nc2ccc3ncc(-c4cc5ccccc5s4)n3n2)cc1` [Compound 25, 4-(3-(benzo[b]thiophen-2-yl)imidazo[1,2-b]pyridazin-6-ylamino)benzoic acid] yielded an IC50 of 500 to 1000 nM.
In turn, `O=C(O)c1cccc(Nc2ccc3ncc(-c4cc5ccccc5s4)n3n2)c1` [Compound 26, 3-(3-(benzo[b]thiophen-2-yl)imidazo[1,2-b]pyridazin-6-ylamino)benzoic acid] yielded an IC50 of 100 to 500 nM.
Under `COc1cc(Nc2ccc3ncc(-c4cc5ccccc5s4)n3n2)ccc1OCCCO` [Compound 27, 3-(4-(3-(benzo[b]thiophen-2-yl)imidazo[1,2-b]pyridazin-6-ylamino)-2-methoxyphenoxy)propan-1-ol] stands 100 to 500 nM.
As for `COc1cc(Nc2ccc3ncc(-c4cc5ccccc5s4)n3n2)ccc1OCC1CC1` [Compound 28, 3-(benzo[b]thiophen-2-yl)-N-(4-(cyclopropylmethoxy)-3-methoxyphenyl)imidazo[1,2-b]pyridazin-6-amine], the figure is below 5000 nM.
Regarding `COc1cc(Nc2ccc3ncc(-c4cc5ccccc5s4)n3n2)ccc1OC(C)C` [Compound 30, 3-(benzo[b]thiophen-2-yl)-N-(4-isopropoxy-3-methoxyphenyl)imidazo[1,2-b]pyridazin-6-amine], the IC50 was below 5000 nM.
The compound `COc1ccc(Nc2ccc3ncc(-c4cc5ccccc5s4)n3n2)cc1O` [Compound 31, 5-(3-(benzo[b]thiophen-2-yl)imidazo[1,2-b]pyridazin-6-ylamino)-2-methoxyphenol] displayed an IC50 below 5000 nM.
Under `COc1cc(Nc2ccc3ncc(-c4cc5ccccc5s4)n3n2)ccn1` [Compound 34, 3-(benzo[b]thiophen-2-yl)-N-(2-methoxypyridin-4-yl)imidazo[1,2-b]pyridazin-6-amine] stands below 5000 nM; under `CN1CCN(Cc2ccc(-c3ccc4ncc(-c5cc6ccccc6s5)n4n3)cc2)CC1` [Compound 39, 3-(benzo[b]thiophen-2-yl)-6-(4-((4-methylpiperazin-1-yl)methyl)phenyl)imidazo[1,2-b]pyridazine], below 5000 nM.
As for `CN1CCN(Cc2cccc(-c3ccc4ncc(-c5cc6ccccc6s5)n4n3)c2)CC1` [Compound 40, 3-(benzo[b]thiophen-2-yl)-6-(3-((4-methylpiperazin-1-yl)methyl)phenyl)imidazo[1,2-b]pyridazine], the figure is below 5000 nM; as for `O=c1cc(Nc2ccc3ncc(-c4cc5ccccc5s4)n3n2)cc[nH]1` [Compound 41, 4-(3-(benzo[b]thiophen-2-yl)imidazo[1,2-b]pyridazin-6-ylamino)pyridin-2-ol], 500 to 1000 nM.
As for `COc1ccc(Nc2ccc3ncc(-c4cc5ccccc5s4)n3n2)cc1C(=O)O` [Compound 43, 5-(3-(benzo[b]thiophen-2-yl)imidazo[1,2-b]pyridazin-6-ylamino)-2-methoxybenzoic acid], the IC50 lay in the range of 500 to 1000 nM.
Under `O=C(O)c1cc(Nc2ccc3ncc(-c4cc5ccccc5s4)n3n2)ccc1OCCCO` [Compound 44, 5-(3-(benzo[b]thiophen-2-yl)imidazo[1,2-b]pyridazin-6-ylamino)-2-(3-hydroxypropoxy)benzoic acid] stands 500 to 1000 nM; under `O=c1cccc(Nc2ccc3ncc(-c4cc5ccccc5s4)n3n2)[nH]1` [Compound 45, 6-(3-(benzo[b]thiophen-2-yl)imidazo[1,2-b]pyridazin-6-ylamino)pyridin-2-ol], below 5000 nM; under `c1cc2cc(-c3ccc4ncc(-c5ccc6[nH]ccc6c5)n4n3)ccc2[nH]1` [Compound 50, 3,6-di(1H-indol-5-yl)imidazo[1,2-b]pyridazine], 100 to 500 nM.
Under `COc1ccc(Nc2ccc3ncc(-c4ccc5[nH]ccc5c4)n3n2)cc1OC` [Compound 53, 3-(1H-indol-5-yl)-N-(3,4-dimethoxyphenyl)imidazo[1,2-b]pyridazin-6-amine] stands 500 to 1000 nM.
As for `COc1cccc(Nc2ccc3ncc(-c4ccc5[nH]ccc5c4)n3n2)c1` [Compound 54, 3-(1H-indol-5-yl)-N-(3-methoxyphenyl)imidazo[1,2-b]pyridazin-6-amine], the figure is below 5000 nM.
As for `CN1CCN(c2cccc(Nc3ccc4ncc(-c5ccc6[nH]ccc6c5)n4n3)c2)CC1` [Compound 56, 3-(1H-indol-5-yl)-N-(3-(4-methylpiperazin-1-yl)phenyl)imidazo[1,2-b]pyridazin-6-amine], the IC50 fell in the range of 500 to 1000 nM.
Under `COC(=O)c1cccc(Nc2ccc3ncc(-c4ccc5[nH]ccc5c4)n3n2)c1` [Compound 61, methyl 3-(3-(1H-indol-5-yl)imidazo[1,2-b]pyridazin-6-ylamino)benzoate] stands below 5000 nM.
For the compound `COc1ccc(Nc2ccc3ncc(-c4ccc5ccccc5c4)n3n2)cc1OC` [Compound 62, N-(3,4-dimethoxyphenyl)-3-(naphthalen-3-yl)imidazo[1,2-b]pyridazin-6-amine], the IC50 is below 5000 nM.
`O=C(O)c1cccc(Nc2ccc3ncc(-c4ccc5ccccc5c4)n3n2)c1` [Compound 63, 3-(3-(naphthalen-3-yl)imidazo[1,2-b]pyridazin-6-ylamino)benzoic acid] showed an IC50 of 100 to 500 nM.
`COc1cc2cc(-c3cnc4ccc(-c5ccc6[nH]ccc6c5)nn34)sc2cc1OC` [Compound 69, 6-(1H-indol-5-yl)-3-(5,6-dimethoxybenzo[b]thiophen-2-yl)imidazo[1,2-b]pyridazine] had an IC50 below 100 nM.
`COc1cc2cc(-c3cnc4ccc(Nc5ccc(OCCCO)c(OC)c5)nn34)sc2cc1OC` [Compound 70, 3-(4-(3-(5,6-dimethoxybenzo[b]thiophen-2-yl)imidazo[1,2-b]pyridazin-6-ylamino)-2-methoxyphenoxy)propan-1-ol] returned an IC50 below 100 nM.
For `COc1cc2cc(-c3cnc4ccc(Nc5cccc(C(=O)O)c5)nn34)sc2cc1OC` [Compound 71, 3-(3-(5,6-dimethoxybenzo[b]thiophen-2-yl)imidazo[1,2-b]pyridazin-6-ylamino)benzoic acid], the IC50 was below 100 nM.
As for `COc1ccc2cc(-c3cnc4ccc(Nc5ccc(OC)c(OC)c5)nn34)sc2c1` [Compound 72, 3-(6-methoxybenzo[b]thiophen-2-yl)-N-(3,4-dimethoxyphenyl)imidazo[1,2-b]pyridazin-6-amine], the figure is 100 to 500 nM; as for `COc1cc2cc(-c3cnc4ccc(-c5ccc(CN6CCN(C)CC6)cc5)nn34)sc2cc1OC` [Compound 73, 3-(5,6-dimethoxybenzo[b]thiophen-2-yl)-6-(4-((4-methylpiperazin-1-yl)methyl)phenyl)imidazo[1,2-b]pyridazine], 500 to 1000 nM; as for `COc1cc2cc(-c3cnc4ccc(-c5cccc(CN6CCN(C)CC6)c5)nn34)sc2cc1OC` [Compound 74, 3-(5,6-dimethoxybenzo[b]thiophen-2-yl)-6-(3-((4-methylpiperazin-1-yl)methyl)phenyl)imidazo[1,2-b]pyridazine], 500 to 1000 nM.
